We go through 34 compounds from patent publication US8614327B2 (Vertex Pharmaceuticals Incorporated, priority 2004, dated 2013).

The test addresses T1, ΔF508-CFTR (Homo sapiens, UniProt P13569, DEL508-508).
T1 construct: expressed in transfected cells
Nature of the test: Membrane potential optical (FRET/VIPR) assay, identification of potentiator compounds. Type of test: cell-based. The following applies: Table 3, assay not given; for % Activity: relative efficacy. The procedure, abridged: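 Double-addition potentiator screen: compound delivered in gluconate-substituted Cl^--free medium, membrane potential followed via CC2-DMPE/DiSBAC2(3) FRET on VIPR. Cells were ΔF508-CFTR-expressing NIH3T3 mouse fibroblasts, held 2 h at 37° C. then 24 h at 27° C. before assay.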

SMILES strings stand for the structures. Bounds are passed on as bounds.

T1 sequence (P13569 with tags, fused parts or gaps DEL508-508): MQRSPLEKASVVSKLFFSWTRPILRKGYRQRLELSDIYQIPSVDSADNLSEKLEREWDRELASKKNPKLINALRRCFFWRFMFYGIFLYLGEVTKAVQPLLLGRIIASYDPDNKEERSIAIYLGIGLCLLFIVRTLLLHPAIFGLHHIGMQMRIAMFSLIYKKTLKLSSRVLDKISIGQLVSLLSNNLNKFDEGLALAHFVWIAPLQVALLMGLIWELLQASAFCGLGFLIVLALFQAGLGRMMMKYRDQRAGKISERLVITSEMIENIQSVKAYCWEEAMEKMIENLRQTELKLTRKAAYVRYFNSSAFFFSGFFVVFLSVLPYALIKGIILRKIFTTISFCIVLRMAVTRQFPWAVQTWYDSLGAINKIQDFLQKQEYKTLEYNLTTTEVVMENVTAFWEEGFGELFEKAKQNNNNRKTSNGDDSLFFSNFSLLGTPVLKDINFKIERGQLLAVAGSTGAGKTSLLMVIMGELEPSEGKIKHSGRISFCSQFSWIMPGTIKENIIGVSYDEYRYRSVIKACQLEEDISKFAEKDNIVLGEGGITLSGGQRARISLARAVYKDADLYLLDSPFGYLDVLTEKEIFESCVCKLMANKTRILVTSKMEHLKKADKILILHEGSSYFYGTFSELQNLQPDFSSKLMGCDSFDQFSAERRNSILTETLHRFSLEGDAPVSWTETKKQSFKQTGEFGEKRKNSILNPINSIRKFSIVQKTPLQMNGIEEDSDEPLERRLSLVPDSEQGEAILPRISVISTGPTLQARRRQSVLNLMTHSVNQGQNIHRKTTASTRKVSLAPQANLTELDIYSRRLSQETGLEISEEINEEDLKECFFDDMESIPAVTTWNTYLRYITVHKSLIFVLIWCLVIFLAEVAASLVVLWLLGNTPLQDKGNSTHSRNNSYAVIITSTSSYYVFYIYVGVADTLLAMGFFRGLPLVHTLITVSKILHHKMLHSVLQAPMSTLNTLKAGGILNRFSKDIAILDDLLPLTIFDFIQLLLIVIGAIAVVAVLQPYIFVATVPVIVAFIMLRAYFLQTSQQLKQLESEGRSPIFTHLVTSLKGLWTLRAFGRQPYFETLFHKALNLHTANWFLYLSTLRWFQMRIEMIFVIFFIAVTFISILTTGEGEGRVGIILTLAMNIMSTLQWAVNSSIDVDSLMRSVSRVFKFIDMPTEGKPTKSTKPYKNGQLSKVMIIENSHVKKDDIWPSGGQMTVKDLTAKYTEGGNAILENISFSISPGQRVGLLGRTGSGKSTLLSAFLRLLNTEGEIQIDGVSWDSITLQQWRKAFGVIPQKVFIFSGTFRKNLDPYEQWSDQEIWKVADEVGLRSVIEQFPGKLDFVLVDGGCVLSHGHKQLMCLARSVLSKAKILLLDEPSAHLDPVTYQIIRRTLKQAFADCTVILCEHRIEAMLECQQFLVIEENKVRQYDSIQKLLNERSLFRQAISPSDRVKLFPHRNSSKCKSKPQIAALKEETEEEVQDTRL

What is called EC50 is the concentration needed to bring the measured effect to its halfway point. As to `CC(C)(C)c1ccc(NC(=O)c2c[nH]c3ccccc3c2=O)cc1O` [Compound 428, N-(3-hydroxy-4-tert-butyl-phenyl)-4-oxo-1H-quinoline-3-carboxamide], the half-maximal effective concentration (EC50) was less than 10 µM and the “% Activity” value is on record as “++ (between 25% to 100%)”.
In the case of `CCc1ccc(NC(=O)c2c[nH]c3ccccc3c2=O)cc1N` [Compound 8, N-(3-amino-4-ethyl-phenyl)-4-oxo-1H-quinoline-3-carboxamide], the 50% effective concentration (EC50) is less than 10 µM and the “% Activity” value is “++ (between 25% to 100%)”.
`Cc1ccc(NC(=O)c2c[nH]c3ccccc3c2=O)cc1C` [Compound 246, N-(3,4-dimethylphenyl)-4-oxo-1H-quinoline-3-carboxamide]: the EC50 was less than 10 µM and the “% Activity” value is given as “++ (between 25% to 100%)”.
With `O=C(Nc1ccc2c(C3CCCC3)c[nH]c2c1)c1c[nH]c2ccccc2c1=O` [Compound 186, N-(3-cyclopentyl-1H-indol-6-yl)-4-oxo-1H-quinoline-3-carboxamide], the EC50 was less than 10 µM and the “% Activity” value is “++ (between 25% to 100%)”.
With `O=C(Nc1cccc(S(=O)(=O)N2CCCC2)c1)c1c[nH]c2ccccc2c1=O` [Compound 24, 4-oxo-N-(3-pyrrolidin-1-ylsulfonylphenyl)-1H-quinoline-3-carboxamide], the EC50 lay within 25 to 60 µM and the “% Activity” value is “+ (<25%)”.
In the same order, the values of `Cc1cccc(-c2ccccc2NC(=O)c2c[nH]c3ccccc3c2=O)c1C` [Compound 401, N-[2-(2,3-dimethylphenyl)phenyl]-4-oxo-1H-quinoline-3-carboxamide] are less than 10 µM and “++ (between 25% to 100%)”.
In the same order, the values of `CC(C)(C)c1ccc(O)cc1NC(=O)c1c[nH]c2ccccc2c1=O` [Compound 662, N-(5-hydroxy-2-tert-butyl-phenyl)-4-oxo-1H-quinoline-3-carboxamide] are less than 10 µM and “+++ (>100%)”.
In the same order, the values of `CC(C)(C)c1ccc(O)cc1NC(=O)c1c[nH]c2cccc(O)c2c1=O` [Compound 609, 5-hydroxy-N-(5-hydroxy-2-tert-butyl-phenyl)-4-oxo-1H-quinoline-3-carboxamide] are less than 10 µM and “++ (between 25% to 100%)”.
In the case of `O=C(Nc1ccc(-c2ccccc2)cn1)c1c[nH]c2ccccc2c1=O` [Compound 402, 4-oxo-N-(5-phenyl-2-pyridyl)-1H-quinoline-3-carboxamide], the EC50 is less than 10 µM and the “% Activity” value is reported as “+ (<25%)”.
In the same order, the values of `O=C(Nc1ccc(N2CCOCC2)cc1C(F)(F)F)c1c[nH]c2ccccc2c1=O` [Compound 598, N-[4-morpholino-2-(trifluoromethyl)phenyl]-4-oxo-1H-quinoline-3-carboxamide] are less than 10 µM and “+++ (>100%)”.
In the same order, the values of `C[S+]([O-])c1ccc(-c2ccccc2NC(=O)c2c[nH]c3ccccc3c2=O)cc1` (stereo not shown) [Compound 134, N-[2-(4-methylsulfinylphenyl)phenyl]-4-oxo-1H-quinoline-3-carboxamide] are less than 10 µM and “++ (between 25% to 100%)”.
As to `O=C(Nc1ccc2c(c1)OC(F)(F)O2)c1c[nH]c2ccccc2c1=O` [Compound 66, N-(2,2-difluorobenzo[1,3]dioxol-5-yl)-4-oxo-1H-quinoline-3-carboxamide], the concentration giving a half-maximal response (EC50) lay in the range of 10 to 25 µM and the “% Activity” value is “++ (between 25% to 100%)”.
In the same order, the values of `CN(C)CCNC(=O)c1ccc(-c2cc3cc[nH]c3cc2NC(=O)c2c[nH]c3ccccc3c2=O)cc1` [Compound 347, N-[5-[4-(2-dimethylaminoethylcarbamoyl)phenyl]-1H-indol-6-yl]-4-oxo-1H-quinoline-3-carboxamide] are 10 to 25 µM and “++ (between 25% to 100%)”.
In the same order, the values of `Cc1ccc2cccc(NC(=O)c3c[nH]c4ccccc4c3=O)c2n1` [Compound 364, N-(2-methyl-8-quinolyl)-4-oxo-1H-quinoline-3-carboxamide] are less than 10 µM and “++ (between 25% to 100%)”.
Turning to `C[C@H]1CCCCN1c1ccc(NC(=O)c2c[nH]c3ccccc3c2=O)c(C(F)(F)F)c1` [Compound 713, (S)-N-(4-(2-methylpiperidin-1-yl)-2-(trifluoromethyl)phenyl)-4-oxo-1,4-dihydroquinoline-3-carboxamide], the EC50 is less than 10 µM and the “% Activity” value is reported as “+++ (>100%)”.
`C[C@@H]1CCCN1c1ccc(NC(=O)c2c[nH]c3ccccc3c2=O)c(C(F)(F)F)c1` [Compound 572, (R)-N-(4-(2-methylpyrrolidin-1-yl)-2-(trifluoromethyl)phenyl)-4-oxo-1,4-dihydroquinoline-3-carboxamide]: the “% Activity” value is “++ (between 25% to 100%)”.
Regarding `Cc1ccc(NC(=O)c2c[nH]c3ccccc3c2=O)nc1` [Compound 195, N-(5-methyl-2-pyridyl)-4-oxo-1H-quinoline-3-carboxamide], the 50% effective concentration (EC50) was in the range of 25 to 60 µM and the “% Activity” value was “+ (<25%)”.
In the same order, the values of `O=C(Nc1ccccc1)c1c[nH]c2cc(C(F)(F)F)ccc2c1=O` [Compound 346, 4-oxo-N-phenyl-7-(trifluoromethyl)-1H-quinoline-3-carboxamide] are less than 10 µM and “++ (between 25% to 100%)”.
With `O=C(Nc1ccccc1N1CCOCC1)c1c[nH]c2ccccc2c1=O` [Compound 4, N-(2-morpholinophenyl)-4-oxo-1H-quinoline-3-carboxamide], the EC50 is less than 10 µM and the “% Activity” value was “++ (between 25% to 100%)”.
In the same order, the values of `COc1ccc(NC(=O)c2c[nH]c3ccccc3c2=O)c(OC)n1` [Compound 193, N-(2,6-dimethoxy-3-pyridyl)-4-oxo-1H-quinoline-3-carboxamide] are 10 to 25 µM and “++ (between 25% to 100%)”.
In the same order, the values of `COc1cc2c(=O)c(C(=O)Nc3cc4[nH]ccc4cc3C(C)(C)C)c[nH]c2cc1F` [Compound 611, 7-fluoro-6-methoxy-4-oxo-N-(5-tert-butyl-1H-indol-6-yl)-1H-quinoline-3-carboxamide] are less than 10 µM and “+++ (>100%)”.
In the same order, the values of `CCOc1ccccc1-c1ccc(N)cc1NC(=O)c1c[nH]c2ccccc2c1=O` [Compound 393, N-[5-amino-2-(2-ethoxyphenyl)-phenyl]-4-oxo-1H-quinoline-3-carboxamide] are less than 10 µM and “++ (between 25% to 100%)”.
As for `O=C(Nc1cc(O)c(Cl)cc1F)c1c[nH]c2ccccc2c1=O` [Compound 695, N-(4-chloro-2-fluoro-5-hydroxy-phenyl)-4-oxo-1H-quinoline-3-carboxamide], the EC50 is less than 10 µM and the “% Activity” value is recorded as “++ (between 25% to 100%)”.
In the same order, the values of `Cc1cccc(C(C)C)c1NC(=O)c1c[nH]c2ccccc2c1=O` [Compound 430, N-(2-isopropyl-6-methyl-phenyl)-4-oxo-1H-quinoline-3-carboxamide] are less than 10 µM and “++ (between 25% to 100%)”.
In the same order, the values of `CC(C)n1cc(C(=O)Nc2ccccc2C(C)(C)C)c(=O)c2ccccc21` [Compound 473, 1-isopropyl-4-oxo-N-(2-tert-butylphenyl)-1H-quinoline-3-carboxamide] are 10 to 25 µM and “++ (between 25% to 100%)”.
In the same order, the values of `CC(C)(C)OC(=O)N1CCCc2ccc(NC(=O)c3c[nH]c4ccccc4c3=O)cc21` [Compound 183, 7-[(4-oxo-1H-quinolin-3-yl)carbonylamino]-1,2,3,4-tetrahydroquinoline-1-carboxylic acid tert-butyl ester] are less than 10 µM and “++ (between 25% to 100%)”.
Turning to `N#Cc1ccccc1NC(=O)c1c[nH]c2ccccc2c1=O` [Compound 95, N-(2-cyanophenyl)-4-oxo-1H-quinoline-3-carboxamide], the 50% effective concentration (EC50) was 10 to 25 µM and the “% Activity” value was “++ (between 25% to 100%)”.
In the same order, the values of `CC1(c2ccc(NC(=O)c3c[nH]c4cccc(O)c4c3=O)cc2)COC1` [Compound 529, 5-hydroxy-N-[4-(3-methyloxetan-3-yl)phenyl]-4-oxo-1H-quinoline-3-carboxamide] are less than 10 µM and “++ (between 25% to 100%)”.
In the same order, the values of `COc1ccccc1NC(=O)c1c[nH]c2ccccc2c1=O` [Compound 80, N-(2-methoxyphenyl)-4-oxo-1H-quinoline-3-carboxamide] are less than 10 µM and “++ (between 25% to 100%)”.
Turning to `Cc1cccc2c(=O)c(C(=O)Nc3cc(O)c(C(C)(C)C)cc3F)c[nH]c12` [Compound 625, N-(2-fluoro-5-hydroxy-4-tert-butyl-phenyl)-8-methyl-4-oxo-1H-quinoline-3-carboxamide], the EC50 was less than 10 µM and the “% Activity” value is listed as “+ (<25%)”.
In the same order, the values of `N#Cc1c(Cl)cccc1NC(=O)c1c[nH]c2ccccc2c1=O` [Compound 222, N-(3-chloro-2-cyano-phenyl)-4-oxo-1H-quinoline-3-carboxamide] are 10 to 25 µM and “++ (between 25% to 100%)”.
In the same order, the values of `N#Cc1ccc(NC(=O)c2c[nH]c3ccccc3c2=O)cc1` [Compound 194, N-(4-cyanophenyl)-4-oxo-1H-quinoline-3-carboxamide] are 25 to 60 µM and “+ (<25%)”.
In the case of `CC(C)(C)c1ccc(NC(=O)c2c[nH]c3ccc(F)cc3c2=O)cc1F` [Compound 527, 6-fluoro-N-(3-fluoro-4-tert-butyl-phenyl)-4-oxo-1H-quinoline-3-carboxamide], the concentration giving a half-maximal response (EC50) was less than 10 µM and the “% Activity” value is “++ (between 25% to 100%)”.
In the same order, the values of `O=C(Nc1cc(O)cc(C(F)(F)F)c1)c1c[nH]c2ccccc2c1=O` [Compound 563, N-[3-hydroxy-5-(trifluoromethyl)phenyl]-4-oxo-1H-quinoline-3-carboxamide] are less than 10 µM and “++ (between 25% to 100%)”.
